Source: ChEMBL document CHEMBL1156814, “Highly suppressing wild-type HIV-1 and Y181C mutant HIV-1 strains by 10-chloromethyl-11-demethyl-12-oxo-calanolide A with druggable profile” (J Med Chem, 2010)

How the values were obtained:
[1] = system: Human immunodeficiency virus 1; assay: Antiviral activity against HIV1 PNL4-3; format: functional, organism-based; settings: Human immunodeficiency virus 1, PNL4-3
[2] = Selectivity index, ratio of IC50 for African green monkey Vero cells to EC50 for HIV1; format: toxicity, cell-based; settings: read-out: Selectivity Index
[3] = system: Human immunodeficiency virus 1; assay: Antiviral activity against HIV1 with reverse transcriptase Y181C mutation; format: functional, organism-based
[4] = system: Human immunodeficiency virus 1; assay: Antiviral activity against HIV1 with reverse transcriptase Y181L mutation; format: functional, organism-based
[5] = Toxicity in African green monkey Vero cells; format: cell-based; settings: chlorocebus sabaeus
[6] = system: Human immunodeficiency virus 1; assay: Antiviral activity against HIV1 with reverse transcriptase K103N mutation; format: functional, organism-based
[7] = system: Human immunodeficiency virus 1; assay: Antiviral activity against 100 TCID50 HIV1 infected in human TZM-b1 cells assessed as inhibition of viral replication by pseudovirus based assay; format: functional, organism-based
[8] = system: Human immunodeficiency virus 1; assay: Antiviral activity against HIV1 with reverse transcriptase G190A mutation; format: functional, organism-based
[9] = system: Human immunodeficiency virus 1; assay: Antiviral activity against HIV1 with reverse transcriptase […] mutation; format: functional, organism-based
[10] = Half life in Wistar rat at 50 mg/kg, po; format: ADME, organism-based; set-up: dose 50 mg/kg, route oral; settings: in vivo
[11] = Tmax in Wistar rat at 5 mg/kg, iv; format: ADME, organism-based; set-up: dose 5 mg/kg, route intravenous; settings: in vivo
Mus musculus [12] = assay: Toxicity in ICR mouse assessed as body weight at 1000 mg/kg, ig after 1 day administered as single dose (reference value: 21.2+/-0.8); format: organism-based; set-up: dose 1000 mg/kg, route intragastric; settings: in vivo, po, 24 h
Mus musculus [13] = assay: Toxicity in ICR mouse assessed as body weight at 4640 mg/kg, ig after 1 day administered as single dose (reference value: 21.1+/-0.9); format: organism-based; set-up: dose 4640 mg/kg, route intragastric; settings: in vivo, po, 24 h
Mus musculus [14] = assay: Toxicity in ICR mouse assessed as mortality at 2150 mg/kg, ig after 4 days administered as single dose; format: organism-based; set-up: dose 2150 mg/kg, route intragastric; settings: in vivo, po, 96 h
Mus musculus [15] = assay: Toxicity in ICR mouse assessed as mortality at 4640 mg/kg, ig after 11 days administered as single dose; format: organism-based; set-up: dose 4640 mg/kg, route intragastric; settings: in vivo, po, 264 h
Mus musculus [16] = assay: Toxicity in ICR mouse assessed as mortality at 1000 mg/kg, ig after 4 days administered as single dose; format: organism-based; set-up: dose 1000 mg/kg, route intragastric; settings: in vivo, po, 96 h
[17] = Cmax in Wistar rat at 50 mg/kg, po; format: ADME, organism-based; set-up: dose 50 mg/kg, route oral; settings: in vivo
Mus musculus [18] = assay: Toxicity in ICR mouse assessed as mortality at 4640 mg/kg, ig after 4 days administered as single dose; format: organism-based; set-up: dose 4640 mg/kg, route intragastric; settings: in vivo, po, 96 h
Mus musculus [19] = assay: Toxicity in ICR mouse assessed as mortality at 4640 mg/kg, ig after 7 days administered as single dose; format: organism-based; set-up: dose 4640 mg/kg, route intragastric; settings: in vivo, po, 168 h
Mus musculus [20] = assay: Toxicity in ICR mouse assessed as mortality at 4640 mg/kg, ig after 1 day administered as single dose; format: organism-based; set-up: dose 4640 mg/kg, route intragastric; settings: in vivo, po, 24 h
[21] = Half life in Wistar rat at 5 mg/kg, iv; format: ADME, organism-based; set-up: dose 5 mg/kg, route intravenous; settings: in vivo
Mus musculus [22] = assay: Toxicity in ICR mouse assessed as mortality at 2150 mg/kg, ig after 14 days administered as single dose; format: organism-based; set-up: dose 2150 mg/kg, route intragastric; settings: in vivo, po, 336 h
Rattus norvegicus [23] = assay: AUC in Wistar rat at 50 mg/kg, po; format: ADME, organism-based, Plasma; set-up: dose 50 mg/kg, route oral; settings: in vivo
Mus musculus [24] = assay: Toxicity in ICR mouse assessed as body weight at 2150 mg/kg, ig after 4 days administered as single dose (reference value: 20.9+/-0.9); format: organism-based; set-up: dose 2150 mg/kg, route intragastric; settings: in vivo, po, 96 h
[25] = Oral bioavailability in Wistar rat at 50 mg/kg; format: ADME, organism-based; settings: in vivo
Mus musculus [26] = assay: Toxicity in ICR mouse assessed as mortality at 1000 mg/kg, ig after 7 days administered as single dose; format: organism-based; set-up: dose 1000 mg/kg, route intragastric; settings: in vivo, po, 168 h
Mus musculus [27] = assay: Toxicity in ICR mouse assessed as body weight at 1000 mg/kg, ig after 4 days administered as single dose (reference value: 21.2+/-0.8); format: organism-based; set-up: dose 1000 mg/kg, route intragastric; settings: in vivo, po, 96 h
Mus musculus [28] = assay: Toxicity in ICR mouse assessed as body weight at 2150 mg/kg, ig after 1 day administered as single dose (reference value: 20.9+/-0.9); format: organism-based; set-up: dose 2150 mg/kg, route intragastric; settings: in vivo, po, 24 h
[29] = Mean residence time in Wistar rat at 5 mg/kg, iv; format: ADME, organism-based; set-up: dose 5 mg/kg, route intravenous; settings: in vivo
Mus musculus [30] = assay: Toxicity in ICR mouse assessed as mortality at 2150 mg/kg, ig after 11 days administered as single dose; format: organism-based; set-up: dose 2150 mg/kg, route intragastric; settings: in vivo, po, 264 h
Mus musculus [31] = assay: Toxicity in ICR mouse assessed as mortality at 4640 mg/kg, ig after 14 days administered as single dose; format: organism-based; set-up: dose 4640 mg/kg, route intragastric; settings: in vivo, po, 336 h
Mus musculus [32] = assay: Toxicity in ICR mouse assessed as mortality at 2150 mg/kg, ig after 7 days administered as single dose; format: organism-based; set-up: dose 2150 mg/kg, route intragastric; settings: in vivo, po, 168 h
[33] = Cmax in Wistar rat at 5 mg/kg, iv; format: ADME, organism-based; set-up: dose 5 mg/kg, route intravenous; settings: in vivo
[34] = Tmax in Wistar rat at 50 mg/kg, po; format: ADME, organism-based; set-up: dose 50 mg/kg, route oral; settings: in vivo
Mus musculus [35] = assay: Toxicity in ICR mouse assessed as mortality at 1000 mg/kg, ig after 1 day administered as single dose; format: organism-based; set-up: dose 1000 mg/kg, route intragastric; settings: in vivo, po, 24 h
Rattus norvegicus [36] = assay: AUC in Wistar rat at 5 mg/kg, iv; format: ADME, organism-based, Plasma; set-up: dose 5 mg/kg, route intravenous; settings: in vivo
Mus musculus [37] = assay: Toxicity in ICR mouse assessed as mortality at 1000 mg/kg, ig after 14 days administered as single dose; format: organism-based; set-up: dose 1000 mg/kg, route intragastric; settings: in vivo, po, 336 h
Mus musculus [38] = assay: Toxicity in ICR mouse assessed as mortality at 2150 mg/kg, ig after 1 day administered as single dose; format: organism-based; set-up: dose 2150 mg/kg, route intragastric; settings: in vivo, po, 24 h
Mus musculus [39] = assay: Toxicity in ICR mouse assessed as body weight at 1000 mg/kg, ig after 7 days administered as single dose (reference value: 21.2+/-0.8); format: organism-based; set-up: dose 1000 mg/kg, route intragastric; settings: in vivo, po, 168 h
Mus musculus [40] = assay: Toxicity in ICR mouse assessed as mortality at 1000 mg/kg, ig after 11 days administered as single dose; format: organism-based; set-up: dose 1000 mg/kg, route intragastric; settings: in vivo, po, 264 h
Mus musculus [41] = assay: Toxicity in ICR mouse assessed as body weight at 2150 mg/kg, ig after 7 days administered as single dose (reference value: 20.9+/-0.9); format: organism-based; set-up: dose 2150 mg/kg, route intragastric; settings: in vivo, po, 168 h
Mus musculus [42] = assay: Toxicity in ICR mouse assessed as body weight at 4640 mg/kg, ig after 4 days administered as single dose (reference value: 21.1+/-0.9); format: organism-based; set-up: dose 4640 mg/kg, route intragastric; settings: in vivo, po, 96 h
[43] = Mean residence time in Wistar rat at 50 mg/kg, po; format: ADME, organism-based; set-up: dose 50 mg/kg, route oral; settings: in vivo
Mus musculus [44] = assay: Toxicity in ICR mouse assessed as body weight at 4640 mg/kg, ig after 7 days administered as single dose (reference value: 21.1+/-0.9); format: organism-based; set-up: dose 4640 mg/kg, route intragastric; settings: in vivo, po, 168 h
[45] = Human immunodeficiency virus 1, TZM-b1, read-out: EC50

Cc1ccnc2c1NC(=O)c1cccnc1N2C1CC1 [NEVIRAPINE]
EC50 [1]: 97.5 nM
selectivity ratio [2]: 3300
EC50 [3]: 42.6 nM
EC50 [4]: 10.5 µM
CC50 [5]: 27.1 µM
EC50 [6]: 13400 nM
EC50 [7, 45]: 8.2 nM
EC50 [8]: 385 nM
EC50 [9]: 6150 nM

CCCc1cc(=O)oc2c3c(c4c(c12)OC(C)(C)C=C4)OC(CSC)CC3=O (stereo not given)
EC50 [7, 45]: 456 nM

CCCc1cc(=O)oc2c3c(c4c(c12)OC(C)(C)C=C4)OC(CN1CCCC1)CC3=O (stereo not given)
EC50 ([7]; tzm-b1): Not Active

CCCc1cc(=O)oc2c3c(c4c(c12)OC(C)(C)C=C4)OC(CBr)CC3=O (stereo not given)
EC50 [7, 45]: 180 nM

CCCc1cc(=O)oc2c3c(c4c(c12)OC(C)(C)C=C4)OC(CNC(=O)Nc1ccccc1OC)CC3=O (stereo not given)
EC50 ([7]; tzm-b1): Not Active

CCCc1cc(=O)oc2c3c(c4c(c12)OC(C)(C)C=C4)OC(CNS(=O)(=O)c1ccc(F)cc1)CC3=O (stereo not given)
EC50 ([7]; tzm-b1): Not Active

CCCc1cc(=O)oc2c3c(c4c(c12)OC(C)(C)C=C4)O[C@H]1C[C@H]1C3=O (relative stereo) [CIS-10,11-CYCLOPROPYL-12-OXO-CALANOLIDE A]
selectivity ratio [2]: 709
CC50 [5]: 7.14 µM
EC50 [7, 45]: 14.1 nM

CCCc1cc(=O)oc2c3c(c4c(c12)OC(C)(C)C=C4)O[C@H](C)[C@@H](C)[C@@H]3O [CALANOLIDE A]
EC50 [1]: 11.4 nM
selectivity ratio [2]: 16
EC50 [3]: 10600 nM
EC50 [4]: 7.17 µM
EC50 [6]: 464 nM
EC50 [7, 45]: 100 nM
EC50 [8]: 159 nM
EC50 [9]: 2.2 nM

CCCc1cc(=O)oc2c3c(c4c(c12)OC(C)(C)C=C4)OC(CCl)CC3=O (stereo not given)
half-life [10]: 228 min
Tmax [11]: 1.8 min
Activity (Mus musculus [12]): 23 g
EC50 [1]: 7.4 nM
Activity (Mus musculus [13]): 23.2 g
Activity (Mus musculus [14]): Non-toxic
Activity (Mus musculus [15]): Non-toxic
selectivity ratio [2]: 1420
Activity (Mus musculus [16]): Non-toxic
EC50 [3]: 0.46 nM
EC50 [4]: 6.13 µM
Cmax [17]: 340 ng/mL
Activity (Mus musculus [18]): Non-toxic
Activity (Mus musculus [19]): Non-toxic
Activity (Mus musculus [20]): Non-toxic
half-life [21]: 114 min
Activity (Mus musculus [22]): Non-toxic
CC50 [5]: 10.5 µM
AUC (Rattus norvegicus [23]): 4.7 ug/hr.ml
EC50 [6]: 316 nM
Activity (Mus musculus [24]): 28 g
EC50 [7, 45]: 7.4 nM
EC50 [8]: 43.9 nM
bioavailability [25]: 32.7%
Activity (Mus musculus [26]): Non-toxic
Activity (Mus musculus [27]): 28.5 g
Activity (Mus musculus [28]): 23 g
MRT [29]: 1.7 h
Activity (Mus musculus [30]): Non-toxic
Activity (Mus musculus [31]): Non-toxic
Activity (Mus musculus [32]): Non-toxic
Cmax [33]: 930 ng/mL
Tmax [34]: 8 h
Activity (Mus musculus [35]): Non-toxic
AUC (Rattus norvegicus [36]): 1.5 ug/hr.ml
Activity (Mus musculus [37]): Non-toxic
Activity (Mus musculus [38]): Non-toxic
Activity (Mus musculus [39]): 31.1 g
Activity (Mus musculus [40]): Non-toxic
Activity (Mus musculus [41]): 31.4 g
Activity (Mus musculus [42]): 27.5 g
EC50 [9]: 104 nM
MRT [43]: 9.2 h
Activity (Mus musculus [44]): 29.9 g

CCCc1cc(=O)oc2c3c(c4c(c12)OC(C)(C)C=C4)OC(CS(C)(=O)=O)CC3=O (stereo not given)
EC50 [7, 45]: 33900 nM
